In paper PMC8583782, “Screening for the Active Anti-Inflammatory and Antioxidant Polyphenols of Gaultheria procumbens and Their Application for Standardisation: From Identification through Cellular Studies to Quantitative Determination” (International Journal of Molecular Sciences, 2021) one finds IC50 data, which are given here for nine compounds.

The target in one assay is T1, HYAL (bovine testis hyaluronidase) (Bos taurus, UniProt Q2YDK3).
T1 construct: gene SPAM1; commercial native preparation from bovine testis (Merck)
T1 sequence (Q2YDK3 36-553): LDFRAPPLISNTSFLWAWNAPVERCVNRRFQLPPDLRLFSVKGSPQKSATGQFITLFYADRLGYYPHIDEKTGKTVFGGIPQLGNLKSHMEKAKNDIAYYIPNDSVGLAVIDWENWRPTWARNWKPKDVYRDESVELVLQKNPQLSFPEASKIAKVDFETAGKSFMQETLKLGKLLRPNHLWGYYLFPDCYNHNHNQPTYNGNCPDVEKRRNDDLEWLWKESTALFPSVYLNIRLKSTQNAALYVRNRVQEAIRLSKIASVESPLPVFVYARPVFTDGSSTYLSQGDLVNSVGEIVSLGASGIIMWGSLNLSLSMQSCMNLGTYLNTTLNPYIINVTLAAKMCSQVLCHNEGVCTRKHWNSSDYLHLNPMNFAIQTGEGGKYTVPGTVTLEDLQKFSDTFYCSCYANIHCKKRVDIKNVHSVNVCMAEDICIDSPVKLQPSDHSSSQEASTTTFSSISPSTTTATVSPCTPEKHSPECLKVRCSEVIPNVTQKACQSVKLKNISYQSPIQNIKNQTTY
As to the kind of experiment: hyaluronidase inhibition assay. It counts as biochemical. Conditions: positive control; read-out: Anti-Inflammatory Activity / HYAL / IC50 (μM) ^a. An excerpt:
hyaluronidase inhibition assay on HYAL (bovine testis hyaluronidase)
On to `C[C@@H]1C[C@H]2[C@@H]3CCC4=CC(=O)C=C[C@]4(C)[C@@]3(F)[C@@H](O)C[C@]2(C)[C@@]1(O)C(=O)CO` [DEX, dexamethasone, reference compound], for which the IC50 was found to be 36.1 ± 2.68 µM.

As to `COc1ccc2c(c1)c(CC(=O)O)c(C)n2C(=O)c1ccc(Cl)cc1` [IND, indomethacin, reference compound], the IC50 was 35.7 ± 5.34 µM.

Still in this assay, the particulars now being: tested at […]; read-out: Anti-Inflammatory Activity / HYAL / IC50 (μM) ^a.
As to `O=C(O)[C@H]1O[C@@H](Oc2c(-c3ccc(O)c(O)c3)oc3cc(O)cc(O)c3c2=O)[C@H](O[C@@H]2OC[C@@H](O)[C@H](O)[C@H]2O)[C@@H](O)[C@@H]1O` [DGQ, quercetin 3-O-β-D-xylopyranosyl-(1→2)-β-D-glucuronopyranoside], the IC50 was determined as 98.1 ± 2.31 µM.

Turning to `COC(=O)c1ccccc1O[C@@H]1O[C@H](CO[C@@H]2OC[C@@H](O)[C@H](O)[C@H]2O)[C@@H](O)[C@H](O)[C@H]1O` [GT, methyl salicylate 2-O-β-D-xylopyranosyl-(1→6)-β-D-glucuronopyranoside], the IC50 came out at 64 ± 2.87 µM.

On to `O=C(O)[C@H]1O[C@@H](Oc2c(-c3ccc(O)c(O)c3)oc3cc(O)cc(O)c3c2=O)[C@H](O)[C@@H](O)[C@@H]1O` [MQ, quercetin 3-O-β-D-glucuronopyranoside], for which the IC50 amounted to 98.2 ± 4.41 µM.

For `Oc1cc(O)c2c(c1)O[C@H](c1ccc(O)c(O)c1)[C@H](O)[C@H]2c1c(O)cc(O)c2c1O[C@H](c1ccc(O)c(O)c1)[C@H](O)C2` [PB2, epicatechin-(4β→8)-epicatechin], the IC50 came to 37.4 ± 1.78 µM.

Take `O=c1c(O)c(-c2ccc(O)c(O)c2)oc2cc(O)cc(O)c12` [QU, quercetin]: the IC50 stood at 102 ± 6.09 µM.

With `O=C(/C=C/c1ccc(O)c(O)c1)O[C@@H]1C[C@](O)(C(=O)O)C[C@@H](O)[C@H]1O` [CHA, 5-O-caffeoylquinic acid], the IC50 came out at 80.7 ± 3.42 µM.

Take `Oc1cc(O)c2c(c1)O[C@H](c1ccc(O)c(O)c1)[C@H](O)C2` [ECA, (−)-epicatechin]: the IC50 amounted to 81.9 ± 3.96 µM.
